The structures appear in SMILES notation. Where two headings read alike, the source gives them in different places. Peptide text beside a SMILES is read from it. A value given as a limit tells only on which side of the number the result lay.

Series [1] deals with T1, human APJ receptor (hAPJ) (Homo sapiens, UniProt P35414).
T1 construct: expressed in transfected cells
T1 sequence (P35414 1-380): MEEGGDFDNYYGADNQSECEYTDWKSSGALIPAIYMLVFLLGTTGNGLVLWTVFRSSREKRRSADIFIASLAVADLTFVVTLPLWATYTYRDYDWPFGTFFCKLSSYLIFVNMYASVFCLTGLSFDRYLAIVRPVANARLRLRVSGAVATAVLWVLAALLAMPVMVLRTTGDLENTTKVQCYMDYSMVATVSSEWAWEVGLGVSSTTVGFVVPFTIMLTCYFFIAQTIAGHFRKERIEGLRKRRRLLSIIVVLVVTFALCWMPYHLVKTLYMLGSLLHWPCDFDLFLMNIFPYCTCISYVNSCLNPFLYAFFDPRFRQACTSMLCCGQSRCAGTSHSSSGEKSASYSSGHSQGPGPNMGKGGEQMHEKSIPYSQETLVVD
Kind of series: HTRF cAMP assay: inhibition of NKH477-stimulated cAMP in HEK cells stably expressing hAPJ. The series is classed as cell-based. The settings on record: for % IA (cAMP inhibition, hAPJ HEK): intrinsic activity; for Ranking: composite class of EC50 (hAPJ), % IA and % histamine or formal (+) charge; for Emax: HEK293, read-out: % IA, bound stated. The text has this: HTRF cAMP Assay and IP-One Assay (Cisbio)
HTRF (homogeneous time resolved fluorescence) is a technology developed by Cisbio Bioassays based on TR-FRET (time-resolved fluorescence resonance energy transfer). Cisbio Bioassays has developed a wide selection of HTRF-based assays compatible with whole cells, thereby enabling functional assays to run under more physiological conditions. The IP-One assays are competitive immunoassays using cryptate-labeled anti-IP1 monoclonal antibody and d2-labeled IP1. IP1 is a relatively stable downstream metabolite of IP3, and accumulates in cells following Gq receptor activation.
cAMP kits based on a competitive immunoassay using cryptate-labeled anti-cAMP antibody and d2-labeled cAMP were used to assay the effects of APJ compounds of the present invention. […] Cells are treated with 1 nG/mL doxycycline and seeded in all white 96 well plates @40 k/well overnight.
For orientation: TR-FRET usually uses a lanthanide donor and a delayed reading to cut background.

For the next series, the system named is rat peritoneal cells. Description: Ex vivo histamine release assay in rat peritoneal cells (vs. Compound 48/80). The class given is cell-based. The following applies: histamine release from rat peritoneal cells relative to Compound 48/80. The text has this: More desirable pharmacological tolerability can include a decrease in an undesirable side effect (e.g., histamine release, an indicator of mast cell degranulation) without a significant loss in activity of the compound.
Screening of the variant G protein receptor compounds against a control compound for histamine release can be done following standard assays. The standard assay can include comparison to a control compound known to elicit a histamine response (e.g., 48/80 having CAS No. 94724-12-6). Such an assay using rat peritoneal cells is described herein for the APJ compounds.
Test compounds were assayed in the ex vivo histamine release assay using a 3-point dose response. Concentrations of total histamine contained in the cells is used to correct for variability in the numbers of mast cells in the lavage per well.
Resident peritoneal cells were harvested from naïve Sprague Dawley rats (male 200-300 gr, Charles River). Rats were euthanized by CO2 asphyxiation and a skin incision was made along the middle-line of the abdomen. Thirty milliliters of HBSS (HyClone, cat#SH 30268.01) containing 20 mM HEPES and 0.2% BSA (heretofore Assay Buffer) were injected intraperitoneally using a 30 mL syringe with the attached 18 gauge needle. The abdomen was gently lavaged for 1-2 min and 7-10 milliliters of the peritoneal lavage were carefully aspirated. Cell count in the peritoneal lavage was determined using Cellometer Auto T4 (Nexcelom Bioscience). The peritoneal cell count was adjusted to […] cells/mL in Assay Buffer. Rat peritoneal cells were kept at room temperature before and during the assay.
For the 10-point assay, 3-fold serial dilutions were prepared for each test compound in 100% DMSO in 96-well plates (Greiner Bio One, Ref#651261)—from 100 μM down to […]. For the 3-point assay, 10-fold serial dilutions were prepared in 100% DMSO at 100 μM, 10 μM and 1 μM concentrations. From this plate, 5 μL of compound were transferred to a new plate containing 45 μL Assay Buffer to generate a compound plate with 10× final concentrations in 10% DMSO with Assay Buffer. In the final plates, column 11 contained 1% DMSO for the low-histamine-releasing control.
Suspensions of the rat peritoneal cells (90 μL of 2.75×10^5 cells/mL; →25,000 cells per well) were introduced into each well of a new 96-well microtiter plate (Greiner Bio One, Ref#651261) and 10 μL aliquots of the serially diluted compounds were transferred to the cells in each well. The microtiter plate was incubated for 30 min at room temperature. Following incubation cells were spun down (500 rpm, 7 min) and supernatants were collected for further analysis. Supernatants were diluted 6 times with the assay buffer (15 μL to 75 μL, for 90 μL total) and released histamine content was determined using HTRF® Histamine assay kit (CisBio, cat#62HTMPEB). To measure the total histamine in each well, cells were lysed by addition of 15 μL 5% TritonX-100 to each well followed by incubation for 15 minutes. The plates were then spun at 3000 rpm for 5 minutes, and 10 μL of supernatant were diluted 9-fold in assay buffer (10 μL to 80 μL for 90 μL total) to make the “total” histamine plate. Histamine content was measured as described above for the “released” histamine values.
The standard positive control was Compound 48/80 (Enzo Life Sciences), a oligomeric polymer mixture produced by the condensation of N-methyl-p-methoxyphenethylamine with formaldehyde. The trimer is the most abundant in the mixture Compound 48/80 is used to promote mast cell degranulation and activates G proteins by a mechanism analogous to that of mastoparan. […] See references: T. Higashijima et al., J. Biol., Chem., 265 14176 (1990); M. Mousli et al., FEBS Lett., 259 260 (1990); K. Gietzen et al., Biochim. Biophys. Acta, 736 109 (1983); K. Gietzen, Biochem. J., 1983 216 611 and C. Bronner et al., Biochim. Biophys. Acta, 920 301(1987).

The mark [2] stands for this setting: EC50 (cAMP inhibition, hAPJ HEK), Table 6, hAPJ HEK cells, NKH477-stimulated cAMP.
Setting [3] is: HTRF cAMP Assay, per data of Table 6.
Where [4] appears, read: HTRF cAMP Assay, per data of Table 6, read-out: EC50 (hAPJ), inhibition of cAMP production, bound stated.
[5] abbreviates: Table 6, hAPJ HEK cells, NKH477-stimulated cAMP, read-out: EC50 (cAMP inhibition, hAPJ HEK).

Usually EC50 stands for the concentration needed to bring the measured effect to its halfway point. `CCCCCCCCCCCCCCCC(=O)N[C@H](C(=O)N[C@H](C(=O)N1CCC[C@H]1C(=O)N[C@@H](Cc1ccccc1)C(=O)N[C@@H](CCCNC(=N)N)C(=O)N[C@@H](CO)C(=O)N[C@@H](CO)C(=O)N[C@@H](CCC(=O)O)C(=O)N1CCC[C@H]1C(=O)N[C@H](CCCCN)C(=O)N[C@@H](CCCNC(=N)N)C(=O)N[C@@H](CCCNC(=N)N)C(=O)N[C@@H](CO)C(=O)N[C@@H](C)C(=O)N[C@@H](CC(=O)O)C(=O)N[C@H](C(=O)N[C@@H](Cc1ccccc1)C(=O)N[C@H](C(N)=O)[C@@H](C)CC)[C@@H](C)CC)C(C)C)[C@@H](C)O` [Compound 1] (HELM PEPTIDE1{[CCCCCCCCCCCCCCCC(=O)[*:2]].T.V.P.F.R.S.S.E.P.[dK].R.R.S.A.D.I.F.I.[am]}$$$$V2.0) gave an EC50 in series [1] (setting [2]) of 0.004 µM. Further, the “% IA (cAMP inhibition, hAPJ HEK)” value in series [1] (Table 6, hAPJ HEK cells) was 57%. Moreover, in series [1], the Ranking result was “** (EC50 25-50 nM (hAPJ), % IA 50-79% and either % histamine>35% or formal (+) charge>1)”. Moreover, the “Histamine (% vs. 48/80)” value with rat peritoneal cells is given as 53%.

On to `CCCCCCCCCCCCCCCC(=O)N[C@H](C(=O)N[C@H](C(=O)N[C@@H](CC(=O)O)C(=O)N[C@@H](CCCNC(=N)N)C(=O)N[C@@H](CO)C(=O)N[C@@H](CO)C(=O)N[C@@H](CCC(=O)O)C(=O)N[C@H](CCCCN)C(=O)N[C@@H](CCCNC(=N)N)C(=O)N[C@@H](CCCNC(=N)N)C(=O)N[C@@H](CO)C(=O)N[C@@H](C)C(=O)N[C@@H](CC(=O)O)C(=O)N[C@@H](Cc1ccc(F)cc1)C(=O)N[C@@H](Cc1ccccc1)C(=O)N[C@H](C(N)=O)[C@@H](C)CC)C(C)C)[C@@H](C)O` [Compound 33, TVDRSSEkRRSAD(p-fluoro-Phe)FI] (HELM PEPTIDE1{[CCCCCCCCCCCCCCCC(=O)[*:2]].T.V.D.R.S.S.E.[dK].R.R.S.A.D.[O=C([C@H](Cc1ccc(F)cc1)N[*:1])[*:2]].F.I.[am]}$$$$V2.0), for which the Emax in series [1] (setting [3]) was in the range of 50 to 79%. For the same compound, the EC50 was 0.025 to 0.05 µM in series [1] (setting [4]) and 0.03 µM in series [1] (setting [5]). In addition, the “% IA (cAMP inhibition, hAPJ HEK)” value in series [1] (Table 6, hAPJ HEK cells) was 80%. The Ranking entry in series [1] was “*** (EC50 25-50 nM (hAPJ), % IA 50-79% and either % histamine≦35% or formal (+) charge≦1)”.

Regarding `CCCCCCCCCCCCCCCC(=O)N[C@H](C(=O)N[C@H](C(=O)N[C@@H](CC(=O)O)C(=O)N[C@@H](CCCNC(=N)N)C(=O)N[C@@H](CO)C(=O)N[C@@H](CO)C(=O)N[C@@H](CCC(=O)O)C(=O)N[C@H](CCCCN)C(=O)N[C@@H](CCCNC(=N)N)C(=O)N[C@@H](CCCNC(=N)N)C(=O)N[C@@H](CO)C(=O)N[C@@H](C)C(=O)N[C@@H](CC(=O)O)C(=O)N[C@@H](Cc1ccc(CN)cc1)C(=O)N[C@@H](Cc1ccccc1)C(=O)N[C@H](C(N)=O)[C@@H](C)CC)C(C)C)[C@@H](C)O` [Compound 34, TVDRSSEkRRSAD(p-CH2NH2-Phe)FI] (HELM PEPTIDE1{[CCCCCCCCCCCCCCCC(=O)[*:2]].T.V.D.R.S.S.E.[dK].R.R.S.A.D.[NCc1ccc(C[C@H](N[*:1])C(=O)[*:2])cc1].F.I.[am]}$$$$V2.0), the Emax in series [1] (setting [3]) fell in the range of 50 to 79%. The figures for the EC50 in series [1] (setting [4]) and in series [1] (setting [5]) were 0.025 to 0.05 µM and 0.03 µM, respectively. Besides, the “% IA (cAMP inhibition, hAPJ HEK)” value in series [1] (Table 6, hAPJ HEK cells) worked out at 104%. Also, the Ranking entry in series [1] is “*** (EC50 25-50 nM (hAPJ), % IA 50-79% and either % histamine≦35% or formal (+) charge≦1)”.

As to `CCCCCCCCCCCCCCCC(=O)N[C@@H](CC(=O)O)C(=O)N[C@H](C(=O)N[C@@H](Cc1c[nH]cn1)C(=O)N[C@@H](CCCNC(=N)N)C(=O)N[C@@H](CO)C(=O)N[C@@H](CO)C(=O)N[C@@H](CCC(=O)O)C(=O)N[C@H](CCCCN)C(=O)N[C@@H](CCCNC(=N)N)C(=O)N[C@@H](CCCNC(=N)N)C(=O)N[C@@H](CO)C(=O)N[C@@H](C)C(=O)N[C@@H](CC(=O)O)C(=O)N[C@H](C(=O)N[C@@H](Cc1ccccc1)C(=O)N[C@H](C(N)=O)[C@@H](C)CC)[C@@H](C)CC)C(C)C` [Compound 35] (HELM PEPTIDE1{[CCCCCCCCCCCCCCCC(=O)[*:2]].D.V.H.R.S.S.E.[dK].R.R.S.A.D.I.F.I.[am]}$$$$V2.0), the EC50 in series [1] (setting [2]) was 0.032 µM; in series [1] (EC50 (hAPJ), inhibition of cAMP production, bound stated, HTRF cAMP Assay, per data of Table 6) it was 0.025 to 0.05 µM. For the same compound, the Emax in series [1] (setting [3]) was 50 to 79%. Further, the “% IA (cAMP inhibition, hAPJ HEK)” value in series [1] (Table 6, hAPJ HEK cells) is on record as 90%. In addition, the Ranking entry in series [1] was “*** (EC50 25-50 nM (hAPJ), % IA 50-79% and either % histamine≦35% or formal (+) charge≦1)”.

As for `CCCCCCCCCCCCCCCC(=O)N[C@@H](CC(=O)O)C(=O)N[C@H](C(=O)N[C@@H](Cc1c[nH]cn1)C(=O)N[C@@H](CCCNC(=N)N)C(=O)N[C@@H](CO)C(=O)N[C@@H](CO)C(=O)N[C@@H](CCC(=O)O)C(=O)N[C@H](CCCCN)C(=O)N[C@@H](CCCNC(=N)N)C(=O)N[C@@H](CCCNC(=N)N)C(=O)N[C@@H](CO)C(=O)N[C@@H](C)C(=O)N[C@@H](CC(=O)O)C(=O)N[C@@H](CCC(N)=O)C(=O)N[C@@H](Cc1ccccc1)C(=O)N[C@H](C(N)=O)[C@@H](C)CC)C(C)C` [Compound 36] (HELM PEPTIDE1{[CCCCCCCCCCCCCCCC(=O)[*:2]].D.V.H.R.S.S.E.[dK].R.R.S.A.D.Q.F.I.[am]}$$$$V2.0), the Emax in series [1] (setting [3]) is at least 80%. Further, the EC50 was at most 0.025 µM in series [1] (setting [4]) and 0.002 µM in series [1] (setting [5]). Also, in series [1] (Table 6, hAPJ HEK cells), the “% IA (cAMP inhibition, hAPJ HEK)” value was 101%. In addition, the Ranking result in series [1] is “***** (EC50≦25 nM (hAPJ), % IA≧80% and either % histamine≦35% or formal (+) charge≦1)”. Also, the “inhibition of NKH477-stimulated increase in cAMP, dose dependent” value in series [1] (concentration response curves, FIGS. 1 and 2, HEK cells stably expressing APJ) is “inhibited”.

The values are drawn from US20160159861A1, “APJ Receptor Compounds” (priority 2013, published 2016).
